Source: ChEMBL document CHEMBL1128038, “Acyl CoA:cholesterol acyltransferase (ACAT) inhibitors: ureas bearing heterocyclic groups bioisosteric for an imidazole” (Bioorg Med Chem Lett, 1995)

Assays:
[1] = target: T1, Sterol O-acyltransferase 1 (Mus musculus, UniProt Q61263); assay: Inhibition of acyl coenzyme A:cholesterol acyltransferase (ACAT) in J774 Macrophage cell culture by using J774 assay.; format: cell-based
T1 sequence (Q61263 whole entry): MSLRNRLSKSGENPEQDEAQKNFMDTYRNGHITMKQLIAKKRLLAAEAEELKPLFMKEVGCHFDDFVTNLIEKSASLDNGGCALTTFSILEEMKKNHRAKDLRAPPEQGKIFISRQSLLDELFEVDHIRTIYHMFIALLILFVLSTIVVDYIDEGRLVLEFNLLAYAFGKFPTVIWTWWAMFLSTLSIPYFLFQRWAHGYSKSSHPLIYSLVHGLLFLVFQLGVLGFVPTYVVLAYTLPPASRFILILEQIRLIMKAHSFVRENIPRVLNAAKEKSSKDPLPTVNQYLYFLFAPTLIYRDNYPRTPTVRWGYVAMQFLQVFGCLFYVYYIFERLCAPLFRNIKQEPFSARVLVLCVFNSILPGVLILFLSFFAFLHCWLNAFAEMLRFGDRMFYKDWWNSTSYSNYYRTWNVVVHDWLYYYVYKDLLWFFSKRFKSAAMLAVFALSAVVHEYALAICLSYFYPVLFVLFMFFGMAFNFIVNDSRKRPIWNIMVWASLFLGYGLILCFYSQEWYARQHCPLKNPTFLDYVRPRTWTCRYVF

[2] = target: T2, Sterol O-acyltransferase 1 (Rattus norvegicus, UniProt O70536); assay: In vitro inhibition of acyl coenzyme A:cholesterol acyltransferase (ACAT) in rat hepatic microsomes by using AIV assay.; parameters: species or system Liver
T2 sequence (O70536 whole entry): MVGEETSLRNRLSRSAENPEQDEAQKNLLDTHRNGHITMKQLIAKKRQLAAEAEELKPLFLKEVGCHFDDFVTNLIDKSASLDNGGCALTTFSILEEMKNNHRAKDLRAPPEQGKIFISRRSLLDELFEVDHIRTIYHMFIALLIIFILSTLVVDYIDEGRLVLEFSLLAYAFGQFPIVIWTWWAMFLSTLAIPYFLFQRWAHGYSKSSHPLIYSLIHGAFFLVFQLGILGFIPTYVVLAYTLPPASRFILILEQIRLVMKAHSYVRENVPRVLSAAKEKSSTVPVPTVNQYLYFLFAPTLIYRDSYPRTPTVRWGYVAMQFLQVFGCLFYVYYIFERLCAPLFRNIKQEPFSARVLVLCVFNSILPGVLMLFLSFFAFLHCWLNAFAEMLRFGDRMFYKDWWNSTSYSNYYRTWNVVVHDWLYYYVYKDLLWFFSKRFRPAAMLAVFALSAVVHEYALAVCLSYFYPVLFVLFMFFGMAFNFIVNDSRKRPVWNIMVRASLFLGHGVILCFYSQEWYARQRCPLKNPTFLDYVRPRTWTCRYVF

[3] = Partition coefficient (logP); format: physicochemical; conditions: octanol/water
[4] = target: T2, Sterol O-acyltransferase 1; assay: In vitro inhibition of ACYL CoA:Cholesterol Acyltransferase (ACAT) in rat hepatic microsomes was measured by using AIV assay; parameters: species or system Liver
[5] = target: T2, Sterol O-acyltransferase 1; assay: In vitro inhibition of Acyl coenzyme A:cholesterol acyltransferase (ACAT) in rat hepatic microsomes was measured by using AIV assay; IA means the compound was inactive; parameters: species or system Liver
[6] = target: T1, Sterol O-acyltransferase 1; assay: Inhibition of Acyl coenzyme A:cholesterol acyltransferase (ACAT) in J774 Macrophage cell culture was measured by using J774 assay; IA means the compound was inactive; format: cell-based
[7] = target: T1, Sterol O-acyltransferase 1; assay: Inhibition of Acyl coenzyme A:cholesterol acyltransferase (ACAT) in J774 Macrophage cell culture was measured by using J774 assay; IA means inactive; format: cell-based

| Compound | IC50 [1] | IC50 ([2]; read-out: IC50) | logP [3] | also measured |
| --- | --- | --- | --- | --- |
| CCCCCCCN(CCCCCSc1nc(N)c2c[nH]nc2n1)C(=O)Nc1ccc(F)cc1F | 72.5 µM | 4.23 µM | 5.74 | – |
| CCCCCCN(CCCCCSc1nc2ccccc2n1C)C(=O)Nc1ccc(F)cc1F | 3.02 µM | 2.49 µM | 7.47 | – |
| CCCCCCN(CCOCCSc1nc2c[nH]cnc-2n1)C(=O)NC(C)C | 60 µM | 2 µM | 3.72 | – |
| CCCCCCCN(CCCCCSc1nnc(-c2ccccc2)c(-c2ccccc2)n1)C(=O)Nc1ccc(F)cc1F | 10.6 µM | 0.44 µM | 8.72 | – |
| CCCCCCCN(CCCCCSc1n[nH]c(-c2ccccc2)n1)C(=O)Nc1ccc(F)cc1F | 4.18 µM | 4 µM | 6.78 | – |
| CCCCCCCN(CCCCCSc1nc(-c2ccccc2)c(-c2ccccc2)n1-c1ccccc1)C(=O)Nc1ccc(F)cc1F | 54.5 µM | – | – | IC50 [2]: Not Active |
| CCCCCCCN(CCCCCSc1nc(O)c2ccccc2n1)C(=O)Nc1ccc(F)cc1F | 11 µM | 4 µM | 6.17 | – |
| CCCCCCCN(CCCCCSc1nc(O)cc(Cc2ccccc2)n1)C(=O)NC(C)C | 25 µM | 9.2 µM | 7.4 | – |
| CCCCCCCN(CCCCCSc1nc(-c2ccccc2)c(-c2ccccc2)n1C)C(=O)Nc1ccc(F)cc1F | 3.8 µM | – | – | – |
| CCCCCCCN(CCCCCSc1[nH]cnc2nncc1-2)C(=O)Nc1ccc(F)cc1F | 3.31 µM | 0.71 µM | 5.6 | – |
| CCCCCCCN(CCCCCSc1[nH]cnc2ncnc1-2)C(=O)Nc1ccc(F)cc1F | 5.32 µM | 0.2 µM | 5.32 | – |
| CCCCCCN(CCCCCSc1nc2ccccc2[nH]1)C(=O)Nc1ccc(F)cc1F | 3.1 µM | 0.5 µM | 7.29 | – |
| CCCCCCN(CCCCCSc1nc2cc([N+](=O)[O-])ccc2[nH]1)C(=O)Nc1ccc(F)cc1F | 8.33 µM | 2 µM | 7.19 | – |
| CCCCCCCN(CCCCCOC1=NC(S)=NC1(c1ccccc1)c1ccccc1)C(=O)NC(C)C | 2.79 µM | – | – | IC50 [4]: 0.09 µM |
| CCCCCCN(CCCCCSc1nc2ccccc2o1)C(=O)Nc1ccc(F)cc1F | 3.5 µM | 51 µM | 7.18 | – |
| CCCCCCCN(CCCCCSc1ncc[nH]1)C(=O)Nc1ccc(F)cc1F | 5.5 µM | – | – | – |
| CCCCCCCN(CCCCCSc1[nH]cnc2nncc1-2)C(=O)NC(C)C | 4.35 µM | 7.13 µM | 5 | – |
| CCCCCCN(CCCCCSc1nc2cc(OCC)ccc2s1)C(=O)Nc1ccc(F)cc1F | 4.54 µM | – | 8.46 | IC50 [5]: Not Active |
| CCCCCCN(CCCCCSc1nc2ccc[nH]c-2n1)C(=O)NC(C)C | 7.1 µM | 7.15 µM | 5.62 | – |
| CCCCCCCN(CCCCCSc1ncccn1)C(=O)Nc1ccc(F)cc1F | 4.37 µM | 3.3 µM | 5.41 | – |

| Compound | IC50 [1] | IC50 ([2]; read-out: IC50) | logP [3] | also measured |
| --- | --- | --- | --- | --- |
| CCCCCCN(CCCCCSc1nc2c(=O)n(C)c(=O)n(C)c2[nH]1)C(=O)NC(C)C | 1.53 µM | 3.6 µM | 5.1 | – |
| CCCCCCCN(CCCCCSC1N=C(c2ccccc2)c2ccccc2NC1=O)C(=O)NC(C)C (stereo not drawn) | 6.53 µM | – | 6.99 | – |
| CCCCCCN(CCCCCSc1nc2ccccc2s1)C(=O)Nc1ccc(F)cc1F | 2.73 µM | 4 µM | 7.78 | – |
| CCCCCCN(CCCCCSc1nc2cc(C)ccc2[nH]1)C(=O)Nc1ccc(F)cc1F | 2.06 µM | 1 µM | 7.79 | – |
| CCCCCCN(CCCCCSc1nc2c([nH]1)CCCC2)C(=O)Nc1ccc(F)cc1F | 2.58 µM | 0.81 µM | 6.81 | – |
| CCCCCCN(CCCCCSc1nc2c[nH]cnc-2n1)C(=O)NC(C)C | 19.1 µM | 23.7 µM | 4.66 | – |
| CCCCCCCN(CCCCCSc1ccccn1)C(=O)Nc1ccc(F)cc1F | 4.51 µM | 4 µM | 6.41 | – |
| CCCCCCCN(CCCCCSc1nc(N)c2c[nH]nc2n1)C(=O)NC(C)C | – | – | 5.14 | IC50 [6]: Not Active; IC50 [2]: Not Active |
| CCCCCCN(CCOCCSc1nc2c[nH]cnc-2n1)C(=O)Nc1ccc(F)cc1F | – | – | 4.32 | IC50 [2]: Not Active |
| CCCCCCCN(CCCCCSC1N=C(c2ccccc2)c2ccccc2NC1=O)C(=O)Nc1ccc(F)cc1F (stereo not drawn) | 6.96 µM | – | 7.59 | – |
| CCCCCCCN(CCCCCSc1nc(-c2ccccc2)c[nH]1)C(=O)Nc1ccc(F)cc1F | 1.6 µM | – | – | – |
| CCCCCCN(CCCCCSc1nc2c[nH]cnc-2n1)C(=O)Nc1ccc(F)cc1F | – | 0.86 µM | 5.26 | IC50 [7]: Not Active |
| CCCCCCCN(CCCCCSc1nc[nH]n1)C(=O)Nc1ccc(F)cc1F | 27.3 µM | 5 µM | – | – |
| CCCCCCCN(CCCCCSC1=NC(=O)C(c2ccccc2)(c2ccccc2)N1)C(=O)NC(C)C | 2.14 µM | 2.79 µM | – | – |
| CCCCCCCN(CCCCCSc1nc(N)cc(O)n1)C(=O)NC(C)C | 9.3 µM | 74 µM | 5.61 | – |
| CCCCCCCN(CCCCCSc1nc(-c2ccccc2)cn1-c1ccccc1)C(=O)Nc1ccc(F)cc1F | 6.02 µM | 7.2 µM | – | – |
| CCCCCCN(CCCCCSc1nc2ccc[nH]c-2n1)C(=O)Nc1ccc(F)cc1F | 5.47 µM | 3.6 µM | 6.22 | – |
| CCCCCCCN(CCCCCSc1[nH]cnc2ncnc1-2)C(=O)NC(C)C | 4.72 µM | 29.7 µM | 4.72 | – |
| CCCCCCCN(CCCCCSc1nnc(-c2ccccc2)n1-c1ccccc1)C(=O)Nc1ccc(F)cc1F | 4.8 µM | 19 µM | 8.64 | – |
